These are literature values, as cited in US12358889B2, “Vaporizable alkaloid compositions and methods of use thereof” (Ready Mix Naturals, LLC, priority 2023, dated 2025).

The target of one series is TRPV1 (Homo sapiens, UniProt Q8NER1). The conditions noted are these: among phytocannabinoids.
A further series has as its target TRPA1 (Homo sapiens, UniProt O75762).
The target of a further series is T1, TRPV2 (Homo sapiens, UniProt Q9Y5S1).
T1 sequence (Q9Y5S1 1-764): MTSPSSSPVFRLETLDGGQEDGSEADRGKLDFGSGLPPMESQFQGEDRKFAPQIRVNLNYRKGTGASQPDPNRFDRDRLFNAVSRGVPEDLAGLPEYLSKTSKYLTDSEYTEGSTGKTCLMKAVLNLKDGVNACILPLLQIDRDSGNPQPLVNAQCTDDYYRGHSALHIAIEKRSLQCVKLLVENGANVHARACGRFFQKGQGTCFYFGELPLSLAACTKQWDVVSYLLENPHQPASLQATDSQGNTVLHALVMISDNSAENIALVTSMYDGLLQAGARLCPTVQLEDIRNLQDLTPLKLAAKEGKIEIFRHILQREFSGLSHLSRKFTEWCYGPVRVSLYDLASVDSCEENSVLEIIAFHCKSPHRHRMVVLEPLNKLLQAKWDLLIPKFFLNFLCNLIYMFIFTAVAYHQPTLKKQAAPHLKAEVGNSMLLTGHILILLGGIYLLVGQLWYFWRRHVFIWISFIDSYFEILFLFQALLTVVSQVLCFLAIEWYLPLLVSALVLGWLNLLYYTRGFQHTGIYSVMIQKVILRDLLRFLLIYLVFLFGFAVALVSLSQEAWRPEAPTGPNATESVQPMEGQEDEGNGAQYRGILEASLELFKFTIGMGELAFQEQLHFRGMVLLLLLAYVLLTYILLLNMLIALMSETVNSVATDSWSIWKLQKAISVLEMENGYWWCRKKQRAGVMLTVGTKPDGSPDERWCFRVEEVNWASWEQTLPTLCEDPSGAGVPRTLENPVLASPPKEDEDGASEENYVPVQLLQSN
To be noted: among phytocannabinoids.

Chain of TRPA1 (O75762 whole entry, species assumed): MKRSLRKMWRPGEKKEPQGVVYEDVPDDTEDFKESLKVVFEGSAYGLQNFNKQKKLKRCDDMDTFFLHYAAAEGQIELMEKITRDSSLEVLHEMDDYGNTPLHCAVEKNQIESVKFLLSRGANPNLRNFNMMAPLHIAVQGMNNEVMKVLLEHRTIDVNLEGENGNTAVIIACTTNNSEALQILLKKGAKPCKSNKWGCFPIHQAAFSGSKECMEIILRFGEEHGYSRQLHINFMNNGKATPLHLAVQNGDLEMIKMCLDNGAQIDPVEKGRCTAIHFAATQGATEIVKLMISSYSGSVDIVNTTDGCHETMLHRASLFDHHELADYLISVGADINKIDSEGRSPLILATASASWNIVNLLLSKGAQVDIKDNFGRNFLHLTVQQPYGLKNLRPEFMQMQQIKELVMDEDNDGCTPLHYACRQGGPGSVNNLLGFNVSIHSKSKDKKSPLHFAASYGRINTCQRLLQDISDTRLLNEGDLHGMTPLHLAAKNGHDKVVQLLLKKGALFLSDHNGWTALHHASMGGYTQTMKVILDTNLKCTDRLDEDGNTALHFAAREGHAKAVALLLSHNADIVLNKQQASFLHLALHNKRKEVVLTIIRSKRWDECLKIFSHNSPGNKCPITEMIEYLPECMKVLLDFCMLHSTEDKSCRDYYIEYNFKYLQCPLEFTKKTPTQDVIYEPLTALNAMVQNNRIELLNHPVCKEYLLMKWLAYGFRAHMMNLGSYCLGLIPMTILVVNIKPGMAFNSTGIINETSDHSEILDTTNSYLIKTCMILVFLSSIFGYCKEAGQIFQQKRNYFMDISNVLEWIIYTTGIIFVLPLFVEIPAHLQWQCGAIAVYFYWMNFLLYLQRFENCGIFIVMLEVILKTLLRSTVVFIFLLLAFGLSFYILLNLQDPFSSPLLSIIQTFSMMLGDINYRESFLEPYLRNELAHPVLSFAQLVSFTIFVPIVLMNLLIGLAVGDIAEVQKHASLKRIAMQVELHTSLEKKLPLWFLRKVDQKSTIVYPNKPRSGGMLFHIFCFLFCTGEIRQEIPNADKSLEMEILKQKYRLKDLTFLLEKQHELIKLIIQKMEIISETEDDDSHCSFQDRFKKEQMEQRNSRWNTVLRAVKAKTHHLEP
Chain of TRPV1 (Q8NER1 whole entry, species assumed): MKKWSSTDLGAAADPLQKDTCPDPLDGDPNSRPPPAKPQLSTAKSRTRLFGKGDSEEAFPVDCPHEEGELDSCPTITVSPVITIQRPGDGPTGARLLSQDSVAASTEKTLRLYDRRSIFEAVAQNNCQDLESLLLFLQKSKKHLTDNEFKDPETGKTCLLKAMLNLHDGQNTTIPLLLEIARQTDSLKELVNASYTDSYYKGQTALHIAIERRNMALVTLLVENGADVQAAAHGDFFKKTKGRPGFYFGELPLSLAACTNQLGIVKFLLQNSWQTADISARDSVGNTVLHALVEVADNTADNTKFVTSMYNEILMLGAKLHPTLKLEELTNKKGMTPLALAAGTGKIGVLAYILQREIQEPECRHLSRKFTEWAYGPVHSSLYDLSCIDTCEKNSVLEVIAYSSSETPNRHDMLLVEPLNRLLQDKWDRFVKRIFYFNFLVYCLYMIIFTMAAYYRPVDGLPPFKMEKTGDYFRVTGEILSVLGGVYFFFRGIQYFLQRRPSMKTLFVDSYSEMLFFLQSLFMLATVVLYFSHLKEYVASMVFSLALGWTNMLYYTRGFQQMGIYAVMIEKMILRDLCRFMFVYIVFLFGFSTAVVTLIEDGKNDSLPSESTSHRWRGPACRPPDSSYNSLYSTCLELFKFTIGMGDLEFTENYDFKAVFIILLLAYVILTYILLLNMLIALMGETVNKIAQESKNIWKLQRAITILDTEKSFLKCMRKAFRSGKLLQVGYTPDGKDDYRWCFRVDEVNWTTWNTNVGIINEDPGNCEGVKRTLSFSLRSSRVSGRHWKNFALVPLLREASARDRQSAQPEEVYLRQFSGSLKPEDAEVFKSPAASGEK

With `C=C(C)[C@@H]1CCC(C)=C[C@H]1c1c(O)cc(CCCCC)cc1O` [CBD, cannabidiol], the “agonism of TRPV1” value on TRPV1 is “most potent and efficacious phytocannabinoid agonist of TRPV1”.

With `CN1CCCC1c1cccnc1` (stereo not shown) [nicotine], the “activation of TRPA1” value at TRPA1 is on record as “known activator of TRPA1”.

Turning to `CCCCCc1cc(O)c2c(c1)OC(C)(C)[C@@H]1CCC(C)=C[C@@H]21` [Δ^9-THC, Δ^9-tetrahydrocannabinol], the “activation of TRPV2” value at TRPV2 is on record as “most potent phytocannabinoid for activating TRPV2”. On TRPA1, the “activation of TRPA1” value is “also activates TRPA1”.
